# Measurements taken from paper PMC2174028 (The Journal of Cell Biology, 2002).
# Experiments:
# [1] = test system: P-selectin; details: ref Leppänen et al., 2000; cited from earlier work
# [2] = test system: P-selectin; format: binding; details: intermediate or high densities of P-selectin, as a function of wall shear stress
Molecule,Affinity for P-selectin (in words) [1],Initial tethering of ligand-coupled microspheres to P-selectin (in words) [2]
"CC(=O)N[C@H]1[C@H]([C@H](O)[C@H](O)CO)O[C@@](O[C@H]2[C@@H](O)[C@@H](CO)O[C@@H](O[C@@H]([C@H](O[C@@H]3O[C@@H](C)[C@@H](O)[C@@H](O)[C@@H]3O)[C@H](C=O)NC(C)=O)[C@H](O)CO)[C@@H]2O)(C(=O)O)C[C@@H]1O [sLe^x, sialyl Lewis x]",very low affinity,–
"sPSGL-1: recombinant soluble form of human PSGL-1 comprising the entire extracellular domain, expressed in CHO cells (protein, UniProt Q14242 18-320, looked up, extracellular domain) extracellular domain: LQLWDTWADEAEKALGPLLARDRRQATEYEYLDYDFLPETEPPEMLRNSTDTTPLTGPGTPESTTVEPAARRSTGLDAGGAVTELTTELANMGNLSTDSAAMEIQTTQPAATEAQTTQPVPTEAQTTPLAATEAQTTRLTATEAQTTPLAATEAQTTPPAATEAQTTQPTGLEAQTTAPAAMEAQTTAPAAMEAQTTPPAAMEAQTTQTTAMEAQTTAPEATEAQTTQPTATEAQTTPLAAMEALSTEPSATEALSMEPTTKRGLFIPFSVSSVTHKGIPMAASNLSVNYPVGAPDHISVKQC",–,tethered at identical rates
